SMILES strings stand for the structures. Counter-ions that a name gives are not always drawn. Like-named read-outs stand apart in the source and are kept apart here.

One data set has as its system VCAM-1. Put plainly: In Vitro VCAM-1 Assay (ELISA of TNF-α-stimulated endothelial cells). The data set is classed as cell-based, human. The conditions noted are these: HAEC or HPAEC cells stimulated with TNF-α (1 ng/ml), approx. 16 h, n = 3. As to the method:
Cell Culture and compound dosing: Cultured primary human aortic (HAEC) or pulmonary (HPAEC) endothelial cells were obtained from Clonetics, Inc., and were used below passage 9. Cells were seeded in 96 well plates such that they would reach 90-95% confluency by the following day. On the following day the cells were stimulated with TNF-α (1 ng/ml) in the presence or absence of compounds dissolved in DMSO such that the final concentration of DMSO is 0.25% or less. To establish a dose curve for each compound, four concentrations in 2- to 5-fold increments were used. Cells were exposed to TNF-α and compounds for approximately 16 hours. The next day the cells were examined under microscope to score for visual signs of toxicity or cell stress.
Following 16 hr exposure to TNF-α and compound the media was discarded and the cells were washed once with Hanks Balanced Salt Solution (HBSS)/Phosphate buffered saline (PBS) (1:1). Primary antibodies against VCAM-1 (0.25 μg/ml in HBSS/PBS+5% FBS) were added and incubated for 30-60 minutes at 37° C. Cells were washed with HBSS/PBS three times, and secondary antibody Horse Radish Peroxidase (HRP)-conjugated goat anti-mouse IgG (1:500 in HBSS/PBS+5% FBS) were added and incubated for 30 minutes at 37° C. Cells were washed with HBSS/PBS four times and TMB substrate were added and incubated at room temperature in the dark until there was adequate development of blue color. The length of time of incubation was typically 5-15 minutes. 2N sulfuric acid was added to stop the color development and the data was collected by reading the absorbance on a BioRad ELISA plate reader at OD 450 nm. The results are expressed as IC50 values (the concentration (micromolar) of compound required to inhibit 50% of the maximal response of the control sample stimulated by TNF-α only). IC50's of the Examples and the free acid of the Examples are tabulated in VCAM-1 Table 1a.
(In general: ELISA stands for enzyme-linked immunosorbent assay.)

The nature of the next data set: Solubility in water. The conditions noted are these: for solubility: water, 25 °C. It counts as physicochemical.
Setting [1] is: Homo sapiens, Endothelial cell, meglumine salt of the Example, read-out: IC50 (μM) (n = 3).
Where [2] appears, read: meglumine salt of the Example, ˜25° C., read-out: Solubility (μg/ml) @ ˜25° C.
The mark [3] stands for this setting: meglumine salt, value given in the synthesis example, read-out: Solubility in water.
[4] abbreviates: Homo sapiens, Endothelial cell, free acid of the Example, read-out: IC50 (μM) of the free acid (n = 3).
Where [5] appears, read: free acid of the Example, ˜25° C., read-out: Solubility, Free acid (μg/ml) @ ˜25° C.

As for `CC(C)(Sc1cc(C(C)(C)C)c(O)c(C(C)(C)C)c1)Sc1cc(C(C)(C)C)c(OC(=O)CCC(=O)O)c(C(C)(C)C)c1` [Example 1 free acid, Butanedioic acid, mono [4-[[1-[[3,5-bis(1,1-dimethylethyl)-4-hydroxyphenyl]thio]-1-methylethyl]thio]-2,6-bis(1,1-dimethylethyl)phenyl]ester, reference compound], in the data set with VCAM-1 (free acid of the Example, read-out: IC50 (μM) of the free acid (n = 3)), the IC50 stood at 7.7 µM. Further, the “Solubility, Free acid (μg/ml) @ ˜25° C.” value in the data set “Solubility in water” (free acid of the Example, ˜25° C.) is less than 5 µg/mL.

`CC(C)(Sc1cc(C(C)(C)C)c(O)c(C(C)(C)C)c1)Sc1cc(C(C)(C)C)c(OC(=O)CCC(=O)O)c(C(C)(C)C)c1` [Example 1, Butanedioic Acid, Mono [4-[[1-[[3,5-bis(1,1-dimethylethyl)-4-hydroxyphenyl]thio]-1-methylethyl]thio]-2,6-bis(1,1-dimethylethyl)phenyl]Ester Meglumine Salt]: the IC50 with VCAM-1 (setting [1]) was determined as 13 µM. The solubility in the data set “Solubility in water” (setting [2]) and in the data set “Solubility in water” (setting [3]) was 390 µg/mL in each case.

Take `CC(C)(Sc1cc(C(C)(C)C)c(O)c(C(C)(C)C)c1)Sc1cc(C(C)(C)C)c(OCC(=O)O)c(C(C)(C)C)c1` [Example 2 free acid, Acetic acid, [4-[[1-[[3,5-bis(1,1-dimethylethyl)-4-hydroxyphenyl]thio]-1-methyl-ethyl]thio]-2,6-bis(1,1-dimethylethyl)phenoxy]-, reference compound]: in the data set on VCAM-1 (setting [4]), the IC50 came out at 10 µM. For the same molecule, the solubility in the data set “Solubility in water” (setting [5]) is less than 5 µg/mL.

In the case of `CC(C)(Sc1cc(C(C)(C)C)c(O)c(C(C)(C)C)c1)Sc1cc(C(C)(C)C)c(OCC(=O)O)c(C(C)(C)C)c1` [Example 2, Acetic Acid, [4-[[1-[[3,5-bis(1,1-dimethylethyl)-4-hydroxyphenyl]thio]-1-methylethyl]thio]-2,6-bis(1,1-dimethylethyl)phenoxy]-, Meglumine Salt], the IC50 in the data set on VCAM-1 (setting [1]) is 6.5 µM. Besides, the solubility in the data set “Solubility in water” (setting [2]) and in the data set “Solubility in water” (setting [3]) was 1010 µg/mL in each case.

With `CC(C)(Sc1cc(C(C)(C)C)c(O)c(C(C)(C)C)c1)Sc1cc(C(C)(C)C)c(OCCCC(=O)O)c(C(C)(C)C)c1` [Example 3 free acid, Butanoic acid, 4-[4-[[1-[[3,5-bis(1,1-dimethylethyl)4-hydroxyphenyl]thio]-1-methyl-ethyl]thio]-2,6-bis(1,1-dimethylethyl)phenoxy]-, reference compound], the 50% inhibitory concentration (IC50) with VCAM-1 (setting [4]) came to 11 µM. Moreover, the solubility in the data set “Solubility in water” (setting [5]) was less than 5 µg/mL.

On to `CC(C)(Sc1cc(C(C)(C)C)c(O)c(C(C)(C)C)c1)Sc1cc(C(C)(C)C)c(OCCCC(=O)O)c(C(C)(C)C)c1` [Example 3, Butanoic Acid, 4-[4-[[1-[[3,5-bis(1,1-dimethylethyl)4-hydroxyphenyl]thio]-1-methylethyl]-thio]-2,6-bis(1,1-dimethylethyl)phenoxy]-, Meglumine Salt], for which the IC50 in the data set on VCAM-1 (setting [1]) was 12 µM. The solubility in “Solubility in water” (setting [2]) and in the data set “Solubility in water” (setting [3]) was 1910 µg/mL each time.

By IC50 is commonly meant the midpoint of a concentration-inhibition curve.

The values above are taken from patent publication US6960683B2, “Salt forms of poorly soluble probucol esters and ethers” (Atherogenics, Inc., priority 2002, dated 2005).
